Data from PMC9913351, “Computational Approach to Drug Penetration across the Blood-Brain and Blood-Milk Barrier Using Chromatographic Descriptors” (Cells, 2023).

Columns and labels:
bovine serum albumin BSA [1] = biological target: T1, bovine serum albumin BSA (Bos taurus, UniProt P02769); test: RP TLC on silanized RP-2 plates impregnated with bovine serum albumin; format: in vitro ADME; settings: for RP/C: Rf from BSA-modified RP-2 plate / Rf from clear one (control); for RP: Rf value from RP plate impregnated with 2 mg/mL BSA solution, mobile phase pH 7.4
T1 construct: purchased Sigma Aldrich
T1 sequence (P02769 25-607): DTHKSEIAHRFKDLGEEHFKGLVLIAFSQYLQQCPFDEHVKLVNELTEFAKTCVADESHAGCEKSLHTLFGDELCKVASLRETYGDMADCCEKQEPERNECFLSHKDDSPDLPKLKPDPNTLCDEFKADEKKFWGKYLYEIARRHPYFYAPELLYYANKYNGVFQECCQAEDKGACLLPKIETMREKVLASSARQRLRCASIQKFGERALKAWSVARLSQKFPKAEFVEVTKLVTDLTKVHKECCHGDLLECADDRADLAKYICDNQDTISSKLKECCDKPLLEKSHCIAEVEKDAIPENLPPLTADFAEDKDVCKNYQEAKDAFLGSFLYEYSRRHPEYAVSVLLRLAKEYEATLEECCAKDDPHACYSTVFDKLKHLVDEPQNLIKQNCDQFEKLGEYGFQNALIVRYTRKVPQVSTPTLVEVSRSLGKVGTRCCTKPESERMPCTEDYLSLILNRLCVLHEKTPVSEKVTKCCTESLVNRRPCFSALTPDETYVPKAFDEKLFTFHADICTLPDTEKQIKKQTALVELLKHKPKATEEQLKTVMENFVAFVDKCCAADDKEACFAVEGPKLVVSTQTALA

human serum albumin HSA = biological target: T2, human serum albumin HSA (Homo sapiens, UniProt P02768); test: HPLC on immobilized human serum albumin column (HPLC-HSA); format: in vitro ADME; settings: for log kHSA: logarithm of retention factor, mobile phase pH 7.4; for kHSA: retention factor, acetate buffer pH 7.4/acetonitrile/methanol 85:10:5
T2 construct: 4 × 10 mm
T2 sequence (P02768 25-609): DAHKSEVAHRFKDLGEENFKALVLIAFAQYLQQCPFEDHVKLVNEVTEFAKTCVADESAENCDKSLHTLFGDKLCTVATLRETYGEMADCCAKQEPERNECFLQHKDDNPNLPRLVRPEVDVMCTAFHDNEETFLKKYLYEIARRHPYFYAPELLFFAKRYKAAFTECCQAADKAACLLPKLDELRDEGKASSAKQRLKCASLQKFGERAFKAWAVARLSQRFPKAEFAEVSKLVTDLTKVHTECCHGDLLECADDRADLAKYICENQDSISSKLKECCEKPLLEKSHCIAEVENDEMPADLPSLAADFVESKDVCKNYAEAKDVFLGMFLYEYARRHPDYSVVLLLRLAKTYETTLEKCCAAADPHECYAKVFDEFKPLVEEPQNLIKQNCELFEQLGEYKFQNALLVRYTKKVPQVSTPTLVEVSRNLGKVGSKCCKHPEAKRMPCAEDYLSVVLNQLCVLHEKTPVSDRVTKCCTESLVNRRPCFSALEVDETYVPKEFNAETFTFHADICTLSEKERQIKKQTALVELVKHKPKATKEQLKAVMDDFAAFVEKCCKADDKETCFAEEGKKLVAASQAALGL

bovine serum albumin BSA [2] = biological target: T1, bovine serum albumin BSA; test: NP TLC on silica gel plates impregnated with bovine serum albumin; format: in vitro ADME; settings: for NP/C: Rf from BSA-modified NP plate / Rf from clear one (control)
[3] = RP TLC on unimpregnated RP-2 control plate; format: physicochemical; settings: Rf value from unimpregnated RP plate (control); mobile phase pH 7.4
[4] = parameters: method as in earlier work; settings: code describing the acid-base properties; source Chembl; cited from earlier work
[5] = HPLC on immobilized artificial membrane column (HPLC-IAM); format: physicochemical; settings: for log kIAM: logarithm of retention factor, mobile phase pH 7.4; for kIAM: retention factor, phosphate buffer pH 7.4/acetonitrile 80:20
[6] = NP TLC on unimpregnated control plate; format: physicochemical; settings: Rf value from unimpregnated NP plate (control); mobile phase pH 7.4
[7] = ratio of drug concentration in milk and plasma; cited from earlier work
[8] = Rf value from NP plate impregnated with 2 mg/mL BSA solution, mobile phase pH 7.4
Throughout, for a/b/n code: key: (-1) - acids; (0) - neutrals; (1) - bases.

Compound | RP/C (bovine serum albumin BSA [1]) | RP (bovine serum albumin BSA [1]) | log kHSA (human serum albumin HSA) | kHSA (human serum albumin HSA) | NP/C (bovine serum albumin BSA [2]) | NP (bovine serum albumin BSA [2]; [8]) | CRP [3] | a/b/n code [4] | log kIAM [5] | kIAM [5] | CNP [6] | M/P ratio [7] | NP (bovine serum albumin BSA [2]; pH 7.4)
O=C(c1ccccc1)c1ccc2n1CCC2C(=O)O (stereo not shown) [ketorolac] | 1.00 | 0.96 | 0.98 | 9.65 | 0.99 | 0.91 | 0.96 | -1 | 0.38 | 2.39 | 0.92 |  | 
NS(=O)(=O)c1cc2c(cc1Cl)NCNS2(=O)=O [hydrochlorotiazide] |  |  |  |  |  |  |  |  | 0.30 | 2.01 |  |  | 
CCOC(=O)C1=C(C)NC(C)=C(C(=O)OC)C1c1cccc([N+](=O)[O-])c1 (stereo not shown) [nitrendipine] | 1.00 | 0.86 | 0.55 | 3.55 | 1.00 | 0.97 | 0.86 | 0 | 0.47 | 2.98 | 0.97 |  | 
CCC1(c2ccccc2)C(=O)NCNC1=O [primidone] | 1.04 | 0.97 | -0.66 | 0.22 | 1.03 | 0.93 | 0.93 | 0 | 0.31 | 2.02 | 0.90 |  | 
C=C[C@H]1C[N@@]2CC[C@H]1C[C@H]2[C@H](O)c1ccnc2ccc(OC)cc12 [quinine] |  |  |  |  |  |  |  |  | 0.49 | 3.06 |  |  | 
CC(C)(C)NC[C@H](O)COc1nsnc1N1CCOCC1 [timolol] |  | 0.97 |  | 0.13 |  | 0.32 | 0.97 |  |  | 2.88 | 0.34 |  | 
CN(C)CCC=C1c2ccccc2COc2ccccc21 [doxepin] | 0.93 | 0.54 | 0.63 | 4.25 | 1.03 | 0.31 |  | 1 | 0.45 | 2.81 | 0.30 |  | 
CCS(=O)(=O)CCn1c([N+](=O)[O-])cnc1C [tinidazole] |  |  | -0.92 | 0.12 |  | 0.88 |  |  | 0.30 | 2.00 | 0.89 |  | 
CN[C@H]1CC[C@@H](c2ccc(Cl)c(Cl)c2)c2ccccc21 [sertraline] |  |  |  |  |  |  |  |  |  |  |  | above 1 | 
CC(=O)CC(c1ccccc1)c1c(O)c2ccccc2oc1=O (stereo not shown) [warfarin] |  |  |  |  |  |  |  |  | 0.44 | 2.76 |  |  | 
CCCc1cc(=O)[nH]c(=S)[nH]1 [propylthiouracil] |  |  |  |  |  |  |  |  | 0.18 | 1.51 |  |  | 
CCCCN1CCCCC1C(=O)Nc1c(C)cccc1C (stereo not shown) [bupivacaine] | 1.01 | 0.75 | 0.07 | 1.18 | 1.00 | 0.67 | 0.74 | 0 |  |  | 0.67 |  | 
CN1CCC[C@@H]1Cc1c[nH]c2ccc(CCS(=O)(=O)c3ccccc3)cc12 [eletriptan] |  |  | 0.58 | 3.78 |  |  |  | 1 | 0.55 | 3.57 |  |  | 
CNCC[C@H](Oc1cccc2ccccc12)c1cccs1 [duloxetine] |  |  | 0.91 | 8.16 |  |  |  |  | 0.45 | 2.84 |  |  | 
CC(N)C12CC3CC(CC(C3)C1)C2 (stereo not shown) [rimantadine] | 1.00 | 0.95 | -0.80 | 0.16 | 1.00 | 0.92 | 0.95 | 1 | 0.28 | 1.91 | 0.92 |  | 
COCCCC/C(=N\OCCN)c1ccc(C(F)(F)F)cc1 [fluvoxamine] |  |  |  |  |  |  |  |  |  |  | 0.34 |  | 
CCN(CC)CCCC(C)Nc1ccnc2cc(Cl)ccc12 (stereo not shown) [chloroquine] |  |  |  |  |  |  |  |  | 0.49 |  |  |  | 

Compound | RP/C (bovine serum albumin BSA [1]) | RP (bovine serum albumin BSA [1]) | log kHSA (human serum albumin HSA) | kHSA (human serum albumin HSA) | NP/C (bovine serum albumin BSA [2]) | NP (bovine serum albumin BSA [2]; [8]) | CRP [3] | a/b/n code [4] | log kIAM [5] | kIAM [5] | CNP [6] | M/P ratio [7] | NP (bovine serum albumin BSA [2]; pH 7.4)
CN(C)CCCN1c2ccccc2CCc2ccc(Cl)cc21 [clomipramine] |  |  |  |  |  |  |  |  |  | 3.05 |  |  | 
CCC[C@@H]1C[C@@H](C(=O)N[C@@H]([C@H]2O[C@H](SC)[C@H](O)[C@@H](O)[C@H]2O)[C@@H](C)O)N(C)C1 [lincomycin] |  |  | -0.08 | 0.82 | 1.00 | 0.91 |  | 1 | 0.59 | 3.89 | 0.91 |  | 
COc1cc(Cc2cnc(N)nc2N)cc(OC)c1OC [trimethoprim] |  |  |  |  |  | 0.59 |  |  |  |  | 0.57 |  | 
NCC1(CC(=O)O)CCCCC1 [gabapentin] |  |  | -0.84 | 0.15 |  |  |  |  | 0.23 | 1.70 |  |  | 
CN(C)CCC=C1c2ccccc2CCc2ccccc21 [amitriptyline] | 0.94 | 0.63 | 0.77 | 5.87 | 0.97 | 0.31 | 0.67 | 1 |  |  | 0.32 |  | 
NC(=O)N1c2ccccc2CC(=O)c2ccccc21 [oxcarbamazepine] |  | 0.91 | -0.40 | 0.40 |  | 0.90 | 0.91 |  | 0.35 | 2.26 | 0.91 |  | 
CC[C@@H](CO)NCCN[C@@H](CC)CO [ethambutol] | 0.98 | 0.95 | 0.24 | 1.73 | 1.11 | 0.21 | 0.97 | 1 | 0.34 | 2.18 | 0.19 |  | 
CCC(C)n1ncn(-c2ccc(N3CCN(c4ccc(OCC5COC(Cn6cncn6)(c6ccc(Cl)cc6Cl)O5)cc4)CC3)cc2)c1=O (stereo not shown) [itraconazole] | 0.98 | 0.84 | 0.98 | 9.65 | 1.01 | 0.97 | 0.86 | 0 | 0.79 | 6.15 | 0.96 |  | 
CC(=O)Nc1nnc(S(N)(=O)=O)s1 [acetazolamid] |  | 0.96 | -0.13 | 0.74 |  |  | 0.97 |  |  |  |  |  | 
CO[C@H]1/C=C/O[C@@]2(C)Oc3c(C)c(O)c4c(O)c(c(/C=N/N5CCN(C)CC5)c(O)c4c3C2=O)NC(=O)/C(C)=C\C=C\[C@H](C)[C@H](O)[C@@H](C)[C@@H](O)[C@@H](C)[C@H](OC(C)=O)[C@@H]1C [rifampicin] |  | 0.94 | -1.53 | 0.03 |  | 0.77 | 0.95 |  | 0.92 | 8.37 | 0.73 |  | 
CC(C)C[C@H](CN)CC(=O)O [pregabalin] |  |  | -0.87 | 0.14 |  |  |  |  | 0.22 | 1.65 |  |  | 
CN(C)CCCC1(c2ccc(F)cc2)OCc2cc(C#N)ccc21 (stereo not shown) [citalopram] |  |  |  |  |  |  |  |  | 0.50 | 3.14 |  |  | 
gentamycin |  |  |  |  |  |  |  | 1 | 0.63 | 4.25 | 0.96 |  | 
CC1COc2c(N3CCN(C)CC3)c(F)cc3c(=O)c(C(=O)O)cn1c23 (stereo not shown) [ofloxacin] |  |  |  |  |  |  |  |  | 0.49 | 3.07 | 0.24 |  | 0.23
Nc1ccc(O)c(C(=O)O)c1 [mesalazine] | 0.98 | 0.97 | -0.73 | 0.18 |  |  | 0.99 | -1 | 0.11 | 1.28 |  |  | 
CC[C@@H](C(N)=O)N1CCCC1=O [levetiracetam] | 1.00 | 0.92 | -1.16 | 0.07 | 1.00 | 0.92 | 0.92 | 0 | 0.21 | 1.62 | 0.92 |  | 
Nc1cc(N2CCCCC2)nc(N)[n+]1[O-] [minoxidil] |  |  |  |  |  |  |  |  | 0.29 | 1.96 |  |  | 
